Three compounds from ChEMBL document CHEMBL1157874, “Synthesis, spectroscopic and biological studies on the new symmetric Schiff base derived from 2,6-diformyl-4-methylphenol with N-aminopyrimidine” (2010) can be followed below.

Values after ≈ are worked out from the molar mass of the structure shown.

Common to all, as to assay type: functional
One experiment concerns Bacillus cereus. As to the kind of experiment: Antibacterial activity against Bacillus cereus ATCC 7064 after 18 hrs by broth microdilution assay. The note with it: ATCC 7064, 18 h. On the technique in general: In broth dilution the organism is exposed to a series of concentrations in liquid medium.
The next experiment concerns Micrococcus luteus. As to the kind of experiment: Antibacterial activity against Micrococcus luteus ATCC 9345 after 18 hrs by broth microdilution assay. To be noted: ATCC 9345, 18 h.
The test system of a further experiment is Candida parapsilosis. Briefly: Antifungal activity against Candida parapsilosis ATCC 22019 after 18 hrs by broth microdilution assay. To be noted: Lodderomyces parapsilosis, ATCC 22019, 18 h.
In experiment [1] the test system is Staphylococcus aureus. As to the kind of experiment: Antibacterial activity against Staphylococcus aureus ATCC 6538 after 18 hrs by broth microdilution assay. The note with it: ATCC 6538, 18 h.
Another experiment concerns Pichia kudriavzevii. As to the kind of experiment: Antifungal activity against Candida krusei ATCC 6258 after 18 hrs by broth microdilution assay. The note with it: ATCC 6258, 18 h.
A further experiment deals with Candida albicans. As to the kind of experiment: Antifungal activity against Candida albicans ATCC 14053 after 18 hrs by broth microdilution assay. The note with it: ATCC 14053, 18 h.
In the next experiment the test system is Escherichia coli. Briefly: Antibacterial activity against Escherichia coli ATCC 4230 after 18 hrs by broth microdilution assay. To be noted: ATCC 4230, 18 h.
Experiment [2] has as its system Staphylococcus aureus. As to the kind of experiment: Antibacterial activity against Staphylococcus aureus ATCC 25923 after 18 hrs by broth microdilution assay. The note with it: ATCC 25923, 18 h.

As usually defined, the MIC is the lowest concentration found to suppress growth. In the case of `CC1(C)S[C@@H]2[C@H](NC(=O)[C@H](N)c3ccccc3)C(=O)N2[C@H]1C(=O)O` [AMPICILLIN], the MIC in the experiment with Bacillus cereus came to 5 µg/mL (≈ 14.3 µM); against Micrococcus luteus, 10 µg/mL (≈ 28.6 µM).
As for `Cc1cc(/C=N/n2cc(C(=O)c3ccccc3)c(-c3ccccc3)nc2=O)c(O)c(/C=N/n2cc(C(=O)c3ccccc3)c(-c3ccccc3)nc2=O)c1`, the minimal inhibitory concentration (MIC) with Candida parapsilosis turned out to be 40 µg/mL (≈ 56.3 µM); in the experiment with Staphylococcus aureus [1] it was 20 µg/mL (≈ 28.1 µM); in the experiment with Pichia kudriavzevii, 40 µg/mL (≈ 56.3 µM); in the experiment on Candida albicans, 40 µg/mL (≈ 56.3 µM); with Escherichia coli, 40 µg/mL (≈ 56.3 µM); in the experiment on Bacillus cereus it was 80 µg/mL (≈ 113 µM). Further, the MIC against Staphylococcus aureus [2] and against Micrococcus luteus was 20 µg/mL (≈ 28.1 µM) in each case.
Take `OC(Cn1cncn1)(Cn1cncn1)c1ccc(F)cc1F` [FLUCONAZOLE]: in the experiment with Pichia kudriavzevii, the MIC was 10 µg/mL (≈ 32.7 µM).
